Legend:
B16 = assay: Inhibition of alpha-MSH-stimulated melanogenesis in mouse B16 cells assessed as reduction in melanin formation; type: functional, cell-based
[1] = Cytotoxicity in mouse B16 cells assessed as cell viability at 40 uM by MTT assay; type: cell-based; conditions: read-out: Activity
[2] = Cytotoxicity in mouse B16 cells assessed as cell viability at 10 uM by MTT assay; type: cell-based; conditions: read-out: Activity
[3] = Cytotoxicity in mouse B16 cells assessed as cell viability at 20 uM by MTT assay; type: cell-based; conditions: read-out: Activity
[4] = Cytotoxicity in mouse B16 cells assessed as cell viability at 5 uM by MTT assay; type: cell-based; conditions: read-out: Activity
[5] = Cytotoxicity in mouse B16 cells assessed as cell viability at 2.5 uM by MTT assay; type: cell-based; conditions: read-out: Activity

Row | IC50 (B16) [µM] | Structure (SMILES) | viability at 40 µM [1] [%] | viability at 10 µM [2] [%] | viability at 20 µM [3] [%] | viability at 5 µM [4] [%] | viability at 2.5 µM [5] [%]
1 | > 40 | NS(=O)(=O)c1ccc(CNC(=O)/C=C/c2ccc(O)c(O)c2)cc1 | 0 |  |  |  | 
2 | 3.7 | Cc1ccc(CNC(=O)/C=C/c2ccc(O)c(O)c2)cc1 |  | 20 | 22 to 30 |  | 
3 | 7 | COc1ccccc1CNC(=O)/C=C/c1ccc(O)c(O)c1 | 35 to 46 |  | 20 |  | 
4 | 6 | O=C(/C=C/c1ccc(O)c(O)c1)NCc1cccc(Cl)c1 |  | 22 | 59 to 62 |  | 
5 | 1.4 | O=C(/C=C/c1ccc(O)c(O)c1)NCc1cccc(C(F)(F)F)c1 |  | 29 to 47 |  | 24 | 
6 | 1.2 | CCCCc1ccc(NC(=O)/C=C/c2ccc(O)c(O)c2)cc1 |  |  |  | 68 to 96 | 33 to 49
7 | 1.6 | O=C(/C=C/c1ccc(O)c(O)c1)NCc1ccc(C(F)(F)F)cc1 |  | 39 to 48 |  | 26 | 
8 | 20 | Cc1ccccc1CNC(=O)/C=C/c1ccc(O)c(O)c1 |  | 25 | 33 to 49 |  | 
9 | 8 | O=C(/C=C/c1ccc(O)c(O)c1)NCc1ccccc1 |  | 23 |  |  | 
10 | 6.2 | COc1ccc(CNC(=O)/C=C/c2ccc(O)c(O)c2)cc1 | 37 to 54 |  | 20 |  | 
11 | 1.8 | O=C(/C=C/c1ccc(O)c(O)c1)NCc1ccc(Cl)cc1 |  | 39 to 53 |  | 23 | 
12 | 1.8 | O=C(/C=C/c1ccc(O)c(O)c1)NCc1ccccc1C(F)(F)F |  | 33 to 49 |  | 22 to 28 | 
13 | 6.5 | O=C(/C=C/c1ccc(O)c(O)c1)NCc1ccccc1Cl | 0 |  |  |  | 
14 | 3 | Cc1cccc(CNC(=O)/C=C/c2ccc(O)c(O)c2)c1 |  | 20 | 45 |  | 

Continued, compound first:

Row | Structure (SMILES) | IC50 (B16) [µM] | viability at 40 µM [1] [%] | viability at 10 µM [2] [%] | viability at 20 µM [3] [%] | viability at 5 µM [4] [%] | viability at 2.5 µM [5] [%]
15 | O=C(/C=C/c1ccc(O)c(O)c1)Nc1ccc(C(F)(F)F)cc1 | 1.4 |  | 77 to 90 |  | 56 to 58 | 
16 | O=C(/C=C/c1ccc(O)c(O)c1)NC1CCCCC1 | 2.8 |  | 23 |  |  | 
17 | CC(=O)Oc1ccc(/C=C/C(=O)OC2CCCCC2)cc1OC(C)=O | 0.2 |  |  |  |  | 24
18 | O=C(/C=C/c1ccc(O)c(O)c1)N1CCCCC1 | 24 | 0 |  |  |  | 
19 | O=C(CCc1ccc(O)c(O)c1)O[C@@H]1C[C@](O)(C(=O)O)C[C@@H](O)[C@H]1O | > 40 |  |  |  |  | 
20 | O=C(/C=C/c1ccc(O)c(O)c1)N1CCNCC1 | > 40 |  |  | 31 |  | 
21 | OC[C@H]1O[C@@H](Oc2ccc(O)cc2)[C@H](O)[C@@H](O)[C@@H]1O [ARBUTIN] | 400 |  |  |  |  | 
22 | CC(C)c1ccc(NC(=O)/C=C/c2ccc(O)c(O)c2)cc1 | 3.4 |  | 82 |  | 15 | 
23 | Cc1n[nH]c(NC(=O)/C=C/c2ccc(O)c(O)c2)c1-c1ccc(Br)cc1 | 1 |  |  |  | 68 to 93 | 29 to 56
24 | O=C(/C=C/c1ccc(O)c(O)c1)Nc1cccc([N+](=O)[O-])c1 | 1.9 |  | 48 |  | 24 to 35 | 
25 | O=C(/C=C/c1ccc(O)c(O)c1)Nc1ccc([N+](=O)[O-])cc1 | 1.4 |  | 51 to 62 |  | 30 to 35 | 
26 | O=C(/C=C/c1ccc(O)c(O)c1)OC1CCCCC1 | 7 |  | 30 |  |  | 
27 | O=C(/C=C/c1ccc(O)c(O)c1)NC1CCCC1 | 30 | 0 |  |  |  | 
28 | COC(=O)[C@]1(O)C[C@@H](O)[C@@H](O)[C@H](OC(=O)/C=C/c2ccc(O)c(O)c2)C1 [CHLOROGENIC ACID METHYL ESTER] | > 40 |  |  |  |  | 
29 | O=C(/C=C/c1ccc(O)c(O)c1)Nc1cccc(C(F)(F)F)c1 | 1.4 |  |  |  | 60 to 82 | 22 to 36
30 | CC(C)(C)OC(=O)N1CCN(C(=O)/C=C/c2ccc(O)c(O)c2)CC1 | 5.8 |  |  | 31 |  | 
31 | O=C(/C=C/c1ccc(O)c(O)c1)Nc1ccccc1 | 7.6 |  | 21 |  |  | 
32 | O=c1cc(CO)occ1O [KOJIC ACID] | 57 |  |  |  |  | 
